Reference: patent US9493438B2, “4,4-difluoro-piperidine-compounds” (ROTTAPHARM BIOTECH S.R.L., priority 2012, dated 2016)

Tests used:
human OX1 receptors = molecular target: T1, human OX1 receptors (Homo sapiens, UniProt O43613); experiment: antagonistic activity against human OX1 receptor, [Ca2+]i fluorimetry in transfected CHO cells; format: cell-based; details: CHO cells transfected with human recombinant OX1; activated with orexin-A 3 nM; pKb = co-logarithm of apparent dissociation constant (modified Cheng Prusoff)
T1 construct: expressed in transfected cells; host or cells: CHO cells
T1 sequence (O43613 1-425): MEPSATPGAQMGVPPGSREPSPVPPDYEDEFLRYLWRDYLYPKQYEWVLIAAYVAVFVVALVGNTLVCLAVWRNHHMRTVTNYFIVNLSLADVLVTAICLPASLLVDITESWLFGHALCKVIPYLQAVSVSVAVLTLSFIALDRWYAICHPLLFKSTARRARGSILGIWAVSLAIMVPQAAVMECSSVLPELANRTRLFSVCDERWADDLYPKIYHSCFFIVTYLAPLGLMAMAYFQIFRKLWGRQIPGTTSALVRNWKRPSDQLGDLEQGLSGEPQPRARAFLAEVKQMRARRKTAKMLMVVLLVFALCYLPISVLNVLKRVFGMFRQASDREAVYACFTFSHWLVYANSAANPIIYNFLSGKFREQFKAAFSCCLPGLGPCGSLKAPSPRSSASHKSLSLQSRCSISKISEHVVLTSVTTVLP
Protocol: (§1) Thus the plate was loaded with the calcium dye (Fluo-4NW/probenecid in HBSS, Hepes 20 mM, pH 7.4; Invitrogen) at 37° C. for 60 min. Afterward the temperature was equilibrated at 22° C. for 15 min and the [Ca2+]i measured directly on the plate by using a fluorescent plate reader (CeliLux Perkin Elmer).
(§2) Invention compounds were dissolved in DMSO, diluted in HBSS (DMSO, 0.3% final) and added to the wells. After 5 min CHO cells were activated with orexin-A, 3 nM while HEK-293 cells were activated with orexin-B, 10 nM. […] The antagonistic activity has been expressed as pKb (co-logarithm of the apparent dissociation constant calculated by using the modified Cheng Prusoff equation). The results are expressed as percent of control specific […] response ((measured specific response/control specific agonist response)×100) obtained in the presence of the test compounds.
(§3) The IC50 values (concentration causing a half-maximal inhibition of the control specific agonist response) were determinated by non-linear regression analysis of the concentration curves generated with mean replicate values using hill equation curve fitting. The IC50 values are obtained by the arithmetical mean of at least two experiments.

human OX2 receptors = molecular target: T2, human OX2 receptors (Homo sapiens, UniProt O43614); experiment: antagonistic activity against human OX2 receptor, [Ca2+]i fluorimetry in transfected HEK-293 cells; format: cell-based; details: read-out: PKb OX2 (converted)
T2 construct: expressed in transfected cells; host or cells: HEK-293 cells
T2 sequence (O43614 1-444): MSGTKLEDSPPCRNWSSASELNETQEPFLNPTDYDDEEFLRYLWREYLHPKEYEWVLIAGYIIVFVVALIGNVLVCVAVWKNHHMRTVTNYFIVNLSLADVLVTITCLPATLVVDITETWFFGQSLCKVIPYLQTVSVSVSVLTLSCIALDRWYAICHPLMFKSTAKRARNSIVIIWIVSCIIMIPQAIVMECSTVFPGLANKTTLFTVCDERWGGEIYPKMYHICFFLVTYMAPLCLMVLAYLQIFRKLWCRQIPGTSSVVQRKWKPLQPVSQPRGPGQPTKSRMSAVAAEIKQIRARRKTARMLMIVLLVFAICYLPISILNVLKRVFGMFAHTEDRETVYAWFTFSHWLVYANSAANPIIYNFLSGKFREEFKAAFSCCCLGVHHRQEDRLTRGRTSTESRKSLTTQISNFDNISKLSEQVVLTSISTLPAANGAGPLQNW
Protocol: as §1, §2, §3

Row | Kb (human OX1 receptors) | Kb (human OX2 receptors) | SMILES
1 | 1.58 nM | 10000 nM | N#Cc1ccc(-c2ncccn2)c(C(=O)N2CCC(F)(F)CC2CNc2ccc(Cl)cn2)c1 (racemic) [Compound 27, (RS)3-(2-(((5-chloropyridin-2-yl)amino)methyl)-4,4-difluoropiperidin-1-carbonyl)-4-(pyrimidin-2-yl)benzonitrile]
2 | 31.6 nM | 1000 nM | CN(C)c1ccc(-c2ccccc2)c(C(=O)N2CCC(F)(F)CC2CNc2ccc(Cl)cn2)c1 (racemic) [Compound 18, (RS)(2-(((5-chloropyridin-2-yl)amino)methyl)-4,4-difluoropiperidin-1-yl)(4-(dimethylamino)-[1,1′-biphenyl]-2-yl)methanone]
3 | 2.51 nM | 10000 nM | Cc1ccc(-c2ncccn2)c(C(=O)N2CCC(F)(F)CC2CNc2ncc(C(F)(F)F)cc2F)n1 (single isomer, unassigned; isomer a) [Compound 32, (4,4-difluoro-2-(((3-fluoro-5-(trifluoromethyl)pyridin-2-yl)amino)methyl)piperidin-1-yl)(6-methyl-3-(pyrimidin-2-yl)pyridin-2-yl)methanone (isomer A)]
4 | 3.98 nM | 10000 nM | Cc1ccc(-c2ncccn2)c(C(=O)N2CCC(F)(F)CC2CNc2ncc(C(F)(F)F)cc2F)n1 (racemic) [Compound 31, (RS)(4,4-difluoro-2-(((3-fluoro-5-(trifluoromethyl)pyridin-2-yl)amino)methyl)piperidin-1-yl)(6-methyl-3-(pyrimidin-2-yl)pyridin-2-yl)methanone]
